Tests used:
Assay type in all cases: cell-based
[1] = biological target: T1, Toll-like receptor 7 (Homo sapiens) (UniProt Q9NYK1); assay: Agonist activity at TLR7 in human PBMC assessed as suppression of HCV replicon replication in human HuH7 luc/neo cells harboring RNA encoding bicistronic expression construct comprising wild type HCV type 1b NS3-NS5B regions exposed to conditioned media from compound treated PBMCs after 24 hrs by luciferase reporter gene assay
T1 sequence (whole entry): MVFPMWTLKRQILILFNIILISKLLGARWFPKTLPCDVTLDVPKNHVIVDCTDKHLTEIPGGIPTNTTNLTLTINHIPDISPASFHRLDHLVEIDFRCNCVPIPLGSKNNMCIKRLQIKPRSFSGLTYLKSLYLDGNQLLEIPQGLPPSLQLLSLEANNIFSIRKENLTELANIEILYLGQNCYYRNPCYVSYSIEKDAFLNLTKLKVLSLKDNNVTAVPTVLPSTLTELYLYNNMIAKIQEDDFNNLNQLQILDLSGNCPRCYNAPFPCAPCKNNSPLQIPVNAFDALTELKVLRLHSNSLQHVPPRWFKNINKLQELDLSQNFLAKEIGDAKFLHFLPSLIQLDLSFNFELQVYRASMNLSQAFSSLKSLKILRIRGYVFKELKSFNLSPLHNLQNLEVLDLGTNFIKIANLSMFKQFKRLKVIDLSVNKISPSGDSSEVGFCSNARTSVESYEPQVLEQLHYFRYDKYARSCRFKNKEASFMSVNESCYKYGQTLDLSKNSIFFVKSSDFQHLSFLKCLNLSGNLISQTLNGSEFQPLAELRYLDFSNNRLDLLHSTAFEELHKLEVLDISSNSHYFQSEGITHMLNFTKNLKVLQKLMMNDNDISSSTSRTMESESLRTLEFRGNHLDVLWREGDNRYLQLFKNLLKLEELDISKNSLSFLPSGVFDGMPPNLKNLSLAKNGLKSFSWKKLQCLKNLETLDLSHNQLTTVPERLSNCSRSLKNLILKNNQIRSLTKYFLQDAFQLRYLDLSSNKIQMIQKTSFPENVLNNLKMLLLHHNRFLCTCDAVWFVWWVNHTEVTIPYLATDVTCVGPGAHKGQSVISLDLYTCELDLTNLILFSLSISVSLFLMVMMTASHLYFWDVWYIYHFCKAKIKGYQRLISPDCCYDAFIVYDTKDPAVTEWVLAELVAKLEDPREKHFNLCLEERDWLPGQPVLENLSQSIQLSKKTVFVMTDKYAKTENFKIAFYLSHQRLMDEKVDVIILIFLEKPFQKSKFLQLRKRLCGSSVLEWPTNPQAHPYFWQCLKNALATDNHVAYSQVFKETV

[2] = biological target: T2, Toll-like receptor 8 (Homo sapiens) (UniProt Q9NR97); assay: Agonist activity at human TLR8 expressed in HEK293 cells after 6 hrs by NFkappaB-luciferase reporter gene assay
T2 sequence (whole entry): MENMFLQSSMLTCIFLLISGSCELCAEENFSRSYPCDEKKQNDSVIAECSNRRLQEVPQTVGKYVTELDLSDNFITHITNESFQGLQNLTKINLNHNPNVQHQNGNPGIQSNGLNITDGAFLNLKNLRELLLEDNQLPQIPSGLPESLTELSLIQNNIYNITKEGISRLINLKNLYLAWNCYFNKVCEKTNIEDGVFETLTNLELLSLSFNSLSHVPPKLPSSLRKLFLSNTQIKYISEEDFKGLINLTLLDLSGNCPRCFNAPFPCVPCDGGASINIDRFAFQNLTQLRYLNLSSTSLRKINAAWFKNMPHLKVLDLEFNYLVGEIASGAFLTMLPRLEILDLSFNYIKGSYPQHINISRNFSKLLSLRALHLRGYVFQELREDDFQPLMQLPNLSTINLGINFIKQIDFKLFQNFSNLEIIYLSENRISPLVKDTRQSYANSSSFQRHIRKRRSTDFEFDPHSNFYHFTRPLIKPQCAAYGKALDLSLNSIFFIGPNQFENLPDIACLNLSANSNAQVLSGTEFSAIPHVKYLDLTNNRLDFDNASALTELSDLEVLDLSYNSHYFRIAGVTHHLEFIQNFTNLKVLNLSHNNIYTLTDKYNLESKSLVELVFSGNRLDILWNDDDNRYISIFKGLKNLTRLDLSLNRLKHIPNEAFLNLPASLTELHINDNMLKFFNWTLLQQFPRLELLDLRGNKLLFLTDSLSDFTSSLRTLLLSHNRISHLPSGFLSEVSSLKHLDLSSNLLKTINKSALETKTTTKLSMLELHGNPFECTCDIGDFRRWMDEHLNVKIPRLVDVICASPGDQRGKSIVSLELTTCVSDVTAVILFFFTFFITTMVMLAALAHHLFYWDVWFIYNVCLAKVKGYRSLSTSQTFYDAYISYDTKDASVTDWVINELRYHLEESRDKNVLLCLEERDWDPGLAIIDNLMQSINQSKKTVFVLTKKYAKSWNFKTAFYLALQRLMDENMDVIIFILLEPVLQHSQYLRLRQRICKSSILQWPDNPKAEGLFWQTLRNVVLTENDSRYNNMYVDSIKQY

[3] = Cytotoxicity against HEK293 cells transfected with the CMV-TLR7 construct assessed as reduction in cell viability after 6 hrs by ATPlite assay; details: human
[4] = biological target: T1, Toll-like receptor 7 (Homo sapiens); assay: Agonist activity at human TLR7 expressed in HEK293 cells after 6 hrs by NFkappaB-luciferase reporter gene assay

Compound | MEC [1] | MEC [2] | CC50 at 6 h [3] | MEC [4]
CCCCNc1nc(N)nc2c1CN(C(=O)c1scnc1C)CC2 | 2.23 µM | 5.6 µM | > 24 µM | 13 µM
CCCCNc1nc(N)nc2c1CN(Cc1ccc(OC(F)(F)F)cc1)CC2 | 0.52 µM | 0.24 µM | > 24 µM | 4.7 µM
CCCCNc1nc(N)nc2c1CN(Cc1cccs1)CC2 | 0.16 µM | 0.14 µM | > 24 µM | 2.5 µM
CCCCNc1nc(N)nc2c1CN(Cc1ccccc1)CC2 |  | 0.06 µM | > 24 µM | 1.6 µM
CCCCNc1nc(N)nc2c1CN(C(=O)c1csnn1)CC2 | 0.15 µM | 0.1 µM | > 24 µM | 0.9 µM
CCCCNc1nc(N)nc2c1CN(S(C)(=O)=O)CC2 |  | 9.9 µM | > 24 µM | > 25 µM
CCCCNc1nc(N)nc2c1CN(Cc1cccc(OC)c1Cl)CC2 | 0.05 µM | 0.04 µM | > 24 µM | 1 µM
CCCCNc1nc(N)nc2c1CN(Cc1cccnc1)CC2 | 0.15 µM | 0.13 µM | > 24 µM | 3 µM
CCCCNc1nc(N)nc2c1CN(Cc1ccccn1)CC2 | 0.14 µM | 0.07 µM | > 24 µM | 3.3 µM
CCCCNc1nc(N)nc2c1CN(C)CC2 |  | 0.03 µM | > 24 µM | 9.6 µM
CCCCNc1nc(N)nc2c1CN(CCc1ccccc1)CC2 |  | 0.2 µM | > 24 µM | 1.8 µM
CCCCNc1nc(N)nc2c1CN(Cc1c[nH]c3ccccc13)CC2 | 0.18 µM | 0.22 µM | > 24 µM | > 20 µM
CCCCNc1nc(N)nc2c1CCN(CCc1ccccc1)C2 |  | 0.2 µM | > 24 µM | 6.5 µM
CCCCNc1nc(N)nc2c1CN(C(=O)C(C)C)CC2 | 1.8 µM | 1.6 µM | > 24 µM | 8.1 µM
CCCCNc1nc(N)nc2c1CCN(C(C)=O)C2 |  | 0.4 µM | > 24 µM | 5.8 µM
CCCCNc1nc(N)nc2c1CN(Cc1ccc(-c3ccccc3)cc1)CC2 | 4.49 µM | 0.5 µM | > 24 µM | 14 µM
CCCCNc1nc(N)nc2c1CN(C(=O)c1ccccn1)CC2 | 2.21 µM | 2.9 µM | > 24 µM | 9.5 µM
CCCCNc1nc(N)nc2c1CCNC2 |  | 0.6 µM | > 24 µM | 8.9 µM
CCCCNc1nc(N)nc2c1CN(Cc1ccc(OC)cc1)CC2 | 0.17 µM | 0.08 µM | > 24 µM | 2.1 µM
CCCCNc1nc(N)nc2c1CN(C(=O)c1cocn1)CC2 | 0.17 µM | 0.2 µM | > 24 µM | 0.7 µM
CCCCNc1nc(N)nc2c1CN(C(=O)C1CCC1)CC2 | 0.23 µM | 0.4 µM | > 24 µM | 0.8 µM
CCCCNc1nc(N)nc2c1CN(C(=O)c1cnc(C)cn1)CC2 | 1.07 µM | 6.8 µM | > 24 µM | 11 µM
CCCCNc1nc(N)nc2c1CN(C(=O)c1ccncc1)CC2 | 3.56 µM | > 25 µM | > 24 µM | > 25 µM

— ChEMBL document CHEMBL4265889, “Design and synthesis of tetrahydropyridopyrimidine based Toll-Like Receptor (TLR) 7/8 dual agonists” (Bioorg Med Chem Lett, 2018)
